The subject of data set [1] is T1, human serum albumin (HSA).
T1 construct: purchased Sigma-Aldrich
Nature of the data set: Binding to human serum albumin (fluorescence quenching). The following applies: for Ksv (Stern–Volmer quenching constant): pH 7.4. The text has this:
Fluorescence quenching induced by studied molecules is described using the well-known Stern-Volmer equation [53]:(1) F0/F=1+Kqτ0[Qu]=1+KSV[Qu] where: F0 and F are HSA fluorescence intensities before and after adding quencher, respectively, Kq is a bimolecular quenching constant, τ0 is life time of the fluorophore in the absence of quencher (the fluorescence life time of a biopolymer is about 5 × 10^−9 s, [Qu] is the quencher concentration, and KSV is the Stern–Volmer quenching constant (KSV = Kq × τ0). The plot of F0/F against [Qu] at 310 K is shown in Figure 3A,B. The Stern–Volmer plots are evidently linear in the 1–16 μM range of concentration for studied compounds.
The value of the binding constant Ka is crucial for understanding the distribution of the drug in plasma. A strong binding produces a decrease in plasma concentrations, […] the distribution and the pharmacological effect of the compound [55]. The apparent binding constant (Kb) and number of binding sites (n) can be calculated using the following equation:(2) log(F0−F/F)=logKb+nlog[Qu]
The interaction forces between a drug and a biomacromolecule may include hydrophobic forces, electrostatic interactions, van der Waals interactions, hydrogen bonds, etc. The thermodynamic parameters of binding reaction are the main evidence for confirming a binding force. In order to elucidate the binding mode, the binding constant for flavonoid–HSA complex formation was evaluated at four different temperatures. The thermodynamic parameters of the binding process can be calculated using the Van’t Hoff equation [60]:(3) lnKb=−ΔH/RT+ΔS/R
The enthalpy change ∆H is calculated on the basis of the slope of lnKb vs. […] plot. The free-energy change ΔG is estimated on the basis of the following equation:(4) ΔG=ΔH−TΔS=−RTlnKb where: ΔH ΔG and ΔS are enthalpy, free enthalpy and entropy change, respectively. R is the gas constant 8.314 J·mol^−1·K^−1.
Analysis of Q 7-MeGlu and Q interaction with human serum albumin (HSA) was performed according to the procedure described by Strugała et al.. The fluorescence measurements were performed on a Cary Eclipse fluorimeter equipped with 1.0 cm quartz cells and a thermostat bath. All quenching experiments were performed at 300, 305, 310 and 315 K for HSA in a phosphate buffer solution of pH 7.4 and final concentration 1.5 × 10^−5 M. The excitation wavelength was set at 280 nm (excitation of the Trp and Tyr), and the emission spectra were read at 285–460 nm. The excitation and emission slits were both set to 5 nm. Our method consisted in tracking the quenching of natural HSA fluorescence caused by Q 7-MeGlu and Q (of final concentrations 1, 2, 4, 6, 8, 10, 12, 14 and 16 µM) added successively. The stock solutions of Q 7-MeGlu and Q were prepared by dissolving in methanol. Control sample contained appropriate amount of methanol. […] The experiment was performed in three independent replicates (n = 3).

The conditions of data set [2]: ref [12]; cited from earlier work.
Data set [3] in a line: Solubility in water (literature values). It counts as physicochemical. The following applies: from cited values.

Each structure is given as a SMILES string. In brackets after ≈: the same amount, converted by molar mass.

`CO[C@H]1[C@H](O)[C@@H](O)[C@H](Oc2cc(O)c3c(=O)c(O)c(-c4ccc(O)c(O)c4)oc3c2)O[C@@H]1CO` [Q 7-MeGlu, quercetin 7-O-β-D-(4″-O-methyl)glucopyranoside]: the “KSV compared with KSV for Q” value in data set [1] was “approximately four times lower”. Also, the “Ksv (Stern–Volmer quenching constant)” value in data set [1] (T 300 K) was 3.837 ± 0.192 * ·10^4 M^−1; in data set [1] (T 305 K), 3.545 ± 0.025 * ·10^4 M^−1; in data set [1] (T 310 K), 3.412 ± 0.045 * ·10^4 M^−1; in data set [1] (T 315 K), 3.182 ± 0.013 * ·10^4 M^−1.

On to `O=c1c(O)c(-c2ccc(O)c(O)c2)oc2cc(O)cc(O)c12` [Quercetin, 3,3′,4′,5,7-pentahydroxyflavone], for which the “Ksv (Stern–Volmer quenching constant)” value in data set [1] (T 300 K) was 17.510 ± 0.152 * ·10^4 M^−1; in data set [1] (T 305 K), 16.719 ± 0.135 * ·10^4 M^−1; in data set [1] (T 310 K) it was 15.632 ± 0.109 * ·10^4 M^−1; in data set [1] (T 315 K), 13.718 ± 0.058 * ·10^4 M^−1. Also, the solubility in water in data set [2] is 0.512 µg/mL (≈ 1.69 µM). Also, the “solubility, fold lower than rutin” value in data set [3] is given as “more than 240 fold”.

These data come from publication PMC6151435, “Bioactivity In Vitro of Quercetin Glycoside Obtained in Beauveria bassiana Culture and Its Interaction with Liposome Membranes” (Molecules : A Journal of Synthetic Chemistry and Natural …, 2017).
